Results: patent US12115208B2, “Small-molecule adjuvants for antibiotics to address antibiotic resistance” (HIGH POINT UNIVERSITY, priority 2017, dated 2024)
“And” between values parts separate entries of the source, which are not always exact repeats. Equal entries are not always repeated. Where two headings read alike, the source gives them in different places.

Tests used:
[1] = system: S. aureus ATCC 29213; experiment: Minimum inhibitory concentration, broth microdilution; format: cell-based; conditions: Staphylococcus aureus
Protocol: (§1) The compounds were then analyzed for antibiotic repotentiation activity. […] The tested strains included USA300, which is a common and particularly virulent strain of community-acquired MRSA.

[2] = system: S. aureus USA300 (MRSA); experiment: as above; format: cell-based, Staphylococcus aureus; conditions: 18 h
Protocol: as §1

[3] = system: S. aureus ATCC 43300 (MRSA); experiment: as above; format: cell-based, Staphylococcus aureus; conditions: 18 h
Protocol: as §1

[4] = system: S. epidermidis 49461; experiment: Antibiotic repotentiation (oxacillin MIC with/without compound); format: cell-based, Staphylococcus epidermidis
Protocol: (§2) The overnight culture was diluted into fresh CAMHB to a concentration of 5×10^5 CFU/ml. […] On the same plate, a standard microdilution MIC with the tested antibiotics and no added compound was also performed to compare the antibiotic MIC in the presence and absence of compound. […] Fold reductions were calculated by dividing the MIC of the antibiotic without compound by the MIC of the antibiotic in the presence of compound.
Antibiotic potentiation in S. epidermidis was also investigated.

[5] = system: S. aureus 43300 (MRSA); experiment: Antibiotic repotentiation (antibiotic MIC with/without compound); format: cell-based, Staphylococcus aureus; conditions: for Fold Reduction: oxacillin MIC
Protocol: as §2, §1

[6] = system: MRSA 43300 biofilm; experiment: Biofilm inhibition, crystal violet assay; format: cell-based, Staphylococcus aureus; conditions: 30 h
Protocol: (§3) A standard static crystal violet assay was used to quantify biofilm inhibition.^45 Cultures of S. aureus or S. epidermidis were grown overnight in TSBG (tryptic soy broth with 5% glucose) at 37° C. with shaking. These cultures were used to inoculate fresh TSBG to a calculated optical density of 0.01 at 600 nm (OD600). […] Untreated aliquots were used as a positive control and water served as a negative control. 100 μl of these suspensions were added to the wells of a 96-well polyvinylchloride microtiter plate. […] After incubation, media was discarded and the plates were washed with water to remove non-adherent cells. Adherent biofilms were stained with 110 μl of crystal violet (0.1% in water) and incubated at room temperature for thirty minutes. The crystal violet staining solution was discarded and plates were washed with water to remove excess stain. The resulting stained biofilms were solubilized with 200 μL of 95% ethanol for 10 minutes. 125 μl of the ethanol solutions were transferred to a clear polystyrene microtiter plate for evaluation. Absorbance at 540 nm was recorded using a BioTek Synergy H1 microplate reader. The absorbance of the negative control lanes was subtracted from the experimental values to account for background staining. Percent inhibition was calculated by comparison of the absorbance values of control versus treated wells under identical conditions.
Antibiotic resistance and biofilm formation share similar regulatory mechanisms. […] Biofilm inhibition was first assessed in S. aureus 43300, a methicillin-resistant strain (see Table 18). As described in Materials and Methods, a standard crystal violet assay was used to assess biofilm inhibition by the tested compounds. The IC50 is described as the compound concentration required to inhibit 50% of biofilm formation. The standard deviation is calculated from at least 3 independent experiments.

[7] = system: S. epidermidis ATCC 49461 biofilm; experiment: Biofilm inhibition, crystal violet assay; format: cell-based, Staphylococcus epidermidis; conditions: read-out: Inhibition of biofilm formation IC50
Protocol: as §3

[8] = system: S. aureus USA300 (MRSA); experiment: Antibiotic repotentiation (antibiotic MIC with/without compound); format: cell-based, Staphylococcus aureus; conditions: for MIC of antibiotic: MRSA USA300
Protocol: as §2, §1

[9] = system: S. aureus USA100 (MRSA); experiment: as above; format: cell-based, Staphylococcus aureus; conditions: for MIC of antibiotic: MRSA USA100
Protocol: as §2

[10] = system: S. aureus USA100 (MRSA); experiment: microbe, parasite or virus in culture; format: cell-based, Staphylococcus aureus; conditions: compound alone, CAMHB, 18 h
[11] = system: S. aureus ATCC 29213; experiment: Antibiotic repotentiation (antibiotic MIC with/without compound); format: cell-based, Staphylococcus aureus; conditions: Staphylococcus aureus, ATCC29213, read-out: Oxacillin MIC
Protocol: as §2, §1

[12] = molecular target: β-lactamase, MSSA ATCC 29213 (Staphylococcus aureus, UniProt P00807); conditions: treatment alone, compared to untreated cells; MSSA 29213
Sequence of β-lactamase, MSSA ATCC 29213 (P00807 25-281): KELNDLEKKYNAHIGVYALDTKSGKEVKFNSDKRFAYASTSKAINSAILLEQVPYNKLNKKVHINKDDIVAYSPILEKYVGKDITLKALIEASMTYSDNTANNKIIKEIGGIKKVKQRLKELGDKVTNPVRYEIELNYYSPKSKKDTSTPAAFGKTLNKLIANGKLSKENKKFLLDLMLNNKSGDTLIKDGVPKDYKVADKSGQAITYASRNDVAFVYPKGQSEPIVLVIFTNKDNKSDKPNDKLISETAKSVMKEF
Protocol: For whole cell nitrocefin assays, bacteria was cultured overnight in CAMHB at 37° C. with shaking. The overnight culture was subcultured 1:100 in fresh CAMHB and grown at 37° C. with shaking to mid-log phase (OD600=0.4-0.6). The culture was adjusted to an OD600 of 0.2 in fresh CAMHB. […] These suspensions were incubated at 37° C. with shaking for thirty minutes. The suspensions were adjusted to an OD600 of 0.132 in phosphate buffered saline (PBS, pH 7, 900 μl). A 100 μl of a stock solution of nitrocefin (500 mg/ml in PBS) was added to these suspensions and mixed. The nitrocefin-bacteria suspensions (100 μl) were added to the wells of a clear 96-well polystyrene microtiter plate. A 50 mg/ml solution of nitrocefin in PBS served as a blank. Using BioTek Synergy H1 microplate reader maintained at 37° C., the absorbance at 486 nm was recorded every 5 minutes for 2 hours.
The known β-lactamase inhibitor sulbactam was used as a positive control. Again, all assays were run in triplicate and each data point represents the average of three data points.

[13] = system: S. aureus NR-49120 (VRSA); experiment: Antibiotic repotentiation (antibiotic MIC with/without compound); format: cell-based, Staphylococcus aureus; conditions: VRSA NR-49120
Protocol: as §2

[14] = system: MRSA; experiment: Growth curves; format: cell-based, Staphylococcus aureus; conditions: single treatment: oxacillin 1 μg/mL alone or amoxapine 150 μM alone; MRSA in CAMHB
Protocol: The overnight culture was diluted into fresh CAMHB to a concentration of 5×10^5 CFU/ml. The cell suspension (3 mL) was aliquoted into sterile culture tubes and compound was added to achieve the desired concentrations. An untreated aliquot served as the control. 200 μl of each suspension or of the untreated control was aliquoted into a flat-bottomed microtiter plate. The plate was maintained at 37° C. with shaking and absorbance readings (600 nm) were recorded every 30 minutes for 24 hours.
MRSA was grown in cation-adjusted Mueller-Hinton broth (CAMHB). […] The optical density of the cultures at 600 nm was measured every 2 hours for 8 hours and again at 24 hours.

[15] = system: blaI mRNA; experiment: RT-qPCR mRNA levels; format: cell-based, Staphylococcus aureus (MRSA); conditions: oxacillin treatment; relative to 16S rRNA
Protocol: (§4) Triplicate cultures of each condition were briefly centrifuged and cell pellets were stored at −80° C. Pellets were resuspended in 100 uL of lyphostaphin (1 mg/mL) and incubated at room temperature for 10 minutes. Next, lysates were subjected to a Qiashredder column and RNA was purified with RNeasy columns according to the manufacturer's protocol (Qiagen). An on-column DNase step was also included. Total RNA was quantified and purity was assessed with a Nanodrop spectrophotometer (Thermo Scientific). RNA integrity was visualized by agarose gel electrophoresis using GelRed (Phenix) and a ChemiDoc MP (BioRad).
(§5) 200 ng of total RNA was reverse transcribed using random primers, according to the manufacturer's protocol (BioRad select cDNA synthesis kit). Minus reverse transcriptase controls were prepared for each sample. Next, duplicate qPCR reactions were performed for each cDNA template using SYBR green according to the manufacturer's protocol (BioRad SYBR Green Supermix). Primer sequences are found in Supporting Information. Those that the authors designed used NCBI Primer Blast to specify the annealing temperatures, length, location, and analyze specificity and secondary structure. All reactions were run on a StepOne thermal cycler (Applied Biosystems). Cycling parameters were as follows: 95° C. for 10 minutes, 40 cycles of 95° C. for 15 seconds followed by 60° C. for 1 minute. Specificity of each primer pair was assessed with melt curve analyses and agarose gel electrophoresis. The efficiency of each primer pair was calculated using results from calibration curves generated in Microsoft Excel. Contaminating genomic DNA levels were calculated using the comparative Ct method. Gene expression levels relative to 16S rRNA were calculated using a relative quantification model.^17 Statistical significance was determined by unpaired student's t tests. All calculations were performed using Microsoft Excel.
(§6) See Blazquez, B. et al., “Regulation of the expression of the beta-lactam antibiotic-resistance determinants in methicillin-resistant Staphylococcus aureus (MRSA),” Biochemistry 2014, 53 (10), 1548; Staude, M. W. et al., “Investigation of signal transduction routes within the sensor/transducer protein BlaR1 of Staphylococcus aureus,” Biochemistry 2015, 54 (8), 1600; Thumanu, K., et al., “Discrete steps in sensing of beta-lactam antibiotics by the BlaR1 protein of the methicillin-resistant Staphylococcus aureus bacterium,” Proc Natl Acad Sci USA 2006, 103 (28), 10630, which are incorporated herein by reference in their entireties.

[16] = system: blaZ mRNA; experiment: RT-qPCR mRNA levels; format: cell-based, Staphylococcus aureus (MRSA); conditions: oxacillin treatment; relative to 16S rRNA
Protocol: as §4, §5, §6

[17] = ATCC29213, compound alone, S. aureus ATCC 29213, CAMHB, 18 h, read-out: MIC
[18] = Staphylococcus aureus, compound alone, S. aureus USA300 (MRSA), CAMHB, read-out: MIC
[19] = Staphylococcus aureus, compound alone, S. aureus ATCC 43300 (MRSA), CAMHB, read-out: MIC
[20] = +75 μM compound, S. epidermidis 49461
[21] = +50 μM compound, S. aureus 43300 (MRSA)
[22] = +31.25 μM compound, S. aureus 43300 (MRSA)
[23] = compound alone, S. aureus ATCC 43300 (MRSA), CAMHB, read-out: MIC
[24] = +75 μM compound, S. aureus 43300 (MRSA)
[25] = +150 μM compound, S. aureus 43300 (MRSA)

With `CN1CCN(C2=Nc3cc(Cl)ccc3Nc3ccccc32)CC1` [Clozapine, 8-chloro-11-(4-methyl-1-piperazinyl)-5H-dibenzo[b,e][1,4]diazepine, reference compound] the MIC [1, 17] was 1200 µM, the MIC [2, 18] was 600 µM and the MIC [3, 19] was 600 µM. The “Oxacillin MIC” value [4, 20] was 16 µg/mL.

For `Clc1ccc2c(c1)Nc1ccccc1CC2` [Compound I-5, 3-chloro-10,11-dihydro-5H-dibenzo[b,f]azepine], the “Fold Reduction” value [5, 21] was 16 and the IC50 ([6]; Staphylococcus aureus, MRSA) was 18.7 µM.

With `Clc1cc2cccnc2c2ncccc12` [Compound V-6] the “Oxacillin MIC” value [5, 22] was 4 µg/mL, the “Fold Reduction” value [5, 22] was 8 and the IC50 [6] was 184 µM. For the same compound, the MIC [3, 23] was 125 µM and the IC50 ([7]; 30 h) was 57.1 µM.

With `Clc1ccc2[nH]c3ccc(Cl)cc3c2c1` [IV-6] the “Oxacillin MIC” value [5, 21] was 1 µg/mL, the “Fold Reduction” value [5, 21] was 32 and the “Oxacillin MIC” value ([8]; +50 μM compound, S. aureus USA300 (MRSA)) was 16/8. The “Fold Reduction” value ([8]; oxacillin MIC, +50 μM compound, S. aureus USA300 (MRSA)) was 4/8, the IC50 [6] was 10.2 µM and the MIC ([2]; compound alone, S. aureus USA300 (MRSA), CAMHB, read-out: MIC) was greater than 200 µM. The MIC [3, 23] was greater than 200 µM, the “Fold Reduction” value ([9]; oxacillin MIC, +50 μM compound, S. aureus USA100 (MRSA)) was 1024/2048 and the MIC [10] was greater than 200 µM.

For `CN1CCN(C2=Nc3ccccc3Oc3ccc(Cl)cc32)CC1` [Loxapine, 2-chloro-11-(4-methyl-1-piperazinyl)dibenz[b,f][1,4]oxazepine, reference compound], the “Fold Reduction” value [5, 24] was 1, the “Fold Reduction” value [5, 25] was 4 and the MIC [1, 17] was 600 µM. For the same compound, the MIC [2, 18] was 600 µM, the MIC [3, 19] was 600 µM and the “Oxacillin MIC” value [4, 20] was 8 µg/mL. For the same compound, the “Fold Reduction” value ([4]; oxacillin MIC, +75 μM compound, S. epidermidis 49461) was 2 and the IC50 ([7]; Staphylococcus epidermidis, ATCC49461, 30 h) was 270 µM.

`Cc1cc2c(s1)Nc1ccccc1N=C2N1CCN(C)CC1` [Olanzapine, reference compound] was tested, and the “Fold Reduction” value [5, 24] was 1, the “Fold Reduction” value [5, 25] was 1 and the MIC ([1]; ATCC29213, 18 h) was 600 µM. It also gave an MIC ([2]; Staphylococcus aureus) of 600 µM and an MIC ([3]; Staphylococcus aureus) of 600 µM.

`Cc1onc(-c2ccccc2)c1C(=O)N[C@@H]1C(=O)N2[C@@H]1SC(C)(C)[C@@H]2C(=O)O` [Oxacillin] was tested, and the MIC of antibiotic ([5]; +Amoxapine (150 μM), S. aureus 43300 (MRSA)) was 2 µg/mL, the MIC of antibiotic ([5]; +Loratadine 25 μM, MRSA 43300) was 4 µg/mL and the MIC of antibiotic ([5]; +Loratadine 50 μM, MRSA 43300) was 1 µg/mL. The MIC of antibiotic ([5]; antibiotic alone, no compound, S. aureus 43300 (MRSA)) was 32 µg/mL and 16 µg/mL, the MIC of antibiotic ([5]; antibiotic alone, S. aureus ATCC 43300 (MRSA)) was 32 µg/mL and the MIC of antibiotic ([8]; +Loratadine 25 μM) was 2 µg/mL. It also gave an MIC of antibiotic ([8]; +Loratadine 50 μM) of 0.5 µg/mL, an MIC ([8]; Staphylococcus aureus, read-out: Oxacillin MIC, oxacillin alone, S. aureus USA300 (MRSA)) of 32 µg/mL and an MIC of antibiotic ([8]; antibiotic alone) of 32 µg/mL. For the same compound, the “Oxacillin MIC” value ([8]; oxacillin alone, S. aureus USA300 (MRSA)) was 64 µg/mL, the MIC [11] was 0.25 µg/mL and the “effect on β-lactamase activity (nitrocefin hydrolysis)” value [12] was “little effect”. The MIC of antibiotic ([9]; +Loratadine 50 μM) was 0.25 µg/mL, the MIC ([9]; Staphylococcus aureus, read-out: Oxacillin MIC) was 512 µg/mL and the MIC of antibiotic ([9]; antibiotic alone) was 256 µg/mL. It also gave an MIC of antibiotic ([13]; +Loratadine 25 μM) of 64 µg/mL, an MIC of antibiotic ([13]; +Loratadine 50 μM) of 16 µg/mL and an MIC ([4]; Staphylococcus epidermidis, 49461, 18 h, read-out: Oxacillin MIC) of 16 µg/mL. The “effect on cell density (OD 600 nm) after 24 hours” value [14] was “negligible effect”, the “increase in blaI levels” value [15] was 13 fold and the “increase in blaZ mRNA” value [16] was 38 fold.
